According to patent US11220672B2, “Human pluripotent stem cell-based system for generating endothelial cells” (Wisconsin Alumni Research Foundation, priority 2014, dated 2022):

Assays:
[1] = tested on: ERK; test: Western blot of ERK activity (pERK) in endothelial cells in 2D culture; assay type: cell-based, human; details: ECs on TCP (2D culture)
From the text: (§1) (D) Top 10 (TPM>100, top 10 fold change) vasculature (TPM>100, Top 10 fold change) (AmiGO, GO:0001944) and cell cycle genes (AmiGO, GO:0007049) from RNA-seq. Full gene list of vasculature and cell cycle was generated by Amigo. […] Data was normalized to DMSO control (not shown). […] Data was normalized to NT control. ERK2i, siRNA of ERK2. NT, non-targeting.
(§2) We investigated a potential role for ERK signaling on cell cycle gene expression for ECs cultured on TCP surfaces since ERK regulates EC functions that include proliferation, blood vessel morphogenesis, and mechanotransduction^34,35,43-46. […] We further investigated the role for ERK activity in regulating the shift to a proliferative phenotype by comparing the top 10 enriched cycle genes from 2D culture and vascular development genes from 3D culture (Day 3) for ECs on TCP after pERK inhibition (FIGS. 3b-d).

[2] = tested on: vasculature and cell cycle genes; test: RT-qPCR of vasculature and cell cycle gene expression in ECs on TCP; assay type: cell-based, human; details: normalized to control
From the text: as §1, §2

[3] = tested on: endothelial cells (ECs); assay type: cell-based; details: ECs on TCP (2D culture)
From the text: as §1

N#CC(=C(/N)Sc1ccccc1N)/C(C#N)=C(\N)Sc1ccccc1N [U0126]
ERK activity (Western blot) [1]: decreased ERK activity
cell cycle gene expression (top 10 genes, RT-qPCR) [2]: 10 of 10 genes downregulated
vasculature (vascular development) gene expression (top 10 genes, RT-qPCR) [2]: 8 of 10 genes upregulated
EC proliferation [3]: decreased EC proliferation
